Experimental data reported in publication PMC9924091 (Journal of Medicinal Chemistry, 2023).
Like-named read-outs stand apart in the source and are kept apart here.

How the values were obtained:
[1] = system: SARS-CoV-2 virus (Victoria strain) in VeroE6 cells; experiment: microbe, parasite or virus in culture; type: cell-based
SARS-CoV-2 PL^pro = target: T1, SARS-CoV-2 PL^pro (Severe acute respiratory syndrome coronavirus 2, UniProt P0DTD1); experiment: SPE-MS SARS-CoV-2 PL^pro inhibition assay; type: biochemical
T1 construct: PL^pro papain-like protease

SARS-CoV-2 M^pro [2] = target: T2, SARS-CoV-2 M^pro (Severe acute respiratory syndrome coronavirus 2, UniProt P0DTD1); conditions: M^pro 2.0 μM, inhibitor 10 μM, 20 mM HEPES pH 7.5, 90 min, ambient temperature
SARS-CoV-2 M^pro [3] = target: T2, SARS-CoV-2 M^pro; type: biochemical; design: M^pro main protease; made in house

C#C[C@H](C[C@@H]1CCNC1=O)NC(=O)[C@@H]1[C@@H]2[C@H](CN1C(=O)COc1ccc(OC(F)(F)F)cc1)C2(C)C [Compound 18]
inhibition of SARS-CoV-2 progression in infected VeroE6 cells (in words) [1]: did not show any inhibitory activity over the tested concentration range
inhibition of SARS-CoV-2 PL^pro (in words) (SARS-CoV-2 PL^pro): None of the tested M^pro inhibitors inhibited SARS-CoV-2 PL^pro

C#C[C@H](C[C@@H]1CCNC1=O)NC(=O)[C@@H]1[C@@H]2[C@H](CN1C(=O)COc1ccc(C(F)(F)F)cc1)C2(C)C [Compound 19]
inhibition of SARS-CoV-2 progression in infected VeroE6 cells (in words) [1]: did not show any inhibitory activity over the tested concentration range
inhibition of SARS-CoV-2 PL^pro (in words) (SARS-CoV-2 PL^pro): None of the tested M^pro inhibitors inhibited SARS-CoV-2 PL^pro

CC(C)(C)[C@H](NC(=O)C(F)(F)F)C(=O)N1C[C@H]2[C@@H]([C@H]1C(=O)N[C@H](C#Cc1ccccc1)C[C@@H]1CCNC1=O)C2(C)C [Compound 27a]
covalent reaction with M^pro by protein-observed SPE-MS (in words) (SARS-CoV-2 M^pro [2]): reacts covalently
inhibition of SARS-CoV-2 PL^pro (in words) (SARS-CoV-2 PL^pro; SPE-MS PL^pro inhibition assay): None of the tested M^pro inhibitors inhibited SARS-CoV-2 PL^pro

CSCC[C@@H](C#N)NC(=O)[C@@H]1[C@@H]2[C@H](CN1C(=O)[C@@H](NC(=O)C(F)(F)F)C(C)(C)C)C2(C)C [Compound 15]
fold less efficient inhibition of SARS-CoV-2 progression in infected VeroE6 cells than nirmatrelvir (1) [1]: ~5 fold
EC50 ([1]; Severe acute respiratory syndrome coronavirus 2, Vero C1008): ~11.8 µM
IC50 (SARS-CoV-2 M^pro [3]): 0.89 ± 0.17 µM
fold less efficient inhibition of isolated M^pro (higher IC50) than alkyne 13 (SARS-CoV-2 M^pro [3]): ~6 fold
inhibition of SARS-CoV-2 PL^pro (in words) (SARS-CoV-2 PL^pro): None of the tested M^pro inhibitors inhibited SARS-CoV-2 PL^pro
IC50 (SARS-CoV-2 PL^pro; isolated recombinant SARS-CoV-2 PL^pro, SPE-MS, n = 2, mean ± SD): > 100 µM

CC(C)(C)[C@H](NC(=O)C(F)(F)F)C(=O)N1C[C@H]2[C@@H]([C@H]1C(=O)N[C@H](C#CC(F)(F)F)C[C@@H]1CCNC1=O)C2(C)C [Compound 28]
inhibition of SARS-CoV-2 PL^pro (in words) (SARS-CoV-2 PL^pro): None of the tested M^pro inhibitors inhibited SARS-CoV-2 PL^pro

CC(C)(C)[C@H](NC(=O)C(F)(F)F)C(=O)N1C[C@H]2[C@@H]([C@H]1C(=O)N[C@H](C#Cc1ccc([N+](=O)[O-])cc1)C[C@@H]1CCNC1=O)C2(C)C [Compound 27b]
inhibition of SARS-CoV-2 PL^pro (in words) (SARS-CoV-2 PL^pro): None of the tested M^pro inhibitors inhibited SARS-CoV-2 PL^pro

CC1(C)[C@@H]2[C@@H](C(=O)N[C@H](C#N)C[C@@H]3CCNC3=O)N(C(=O)COc3ccc(C(F)(F)F)cc3)C[C@@H]21 [Compound 21]
inhibition of SARS-CoV-2 PL^pro (in words) (SARS-CoV-2 PL^pro): None of the tested M^pro inhibitors inhibited SARS-CoV-2 PL^pro

C#C[C@H](C[C@@H]1CCNC1=O)NC(=O)[C@H](CC(C)C)NC(=O)OCc1ccccc1 [Compound 23]
inhibition of SARS-CoV-2 progression in infected VeroE6 cells (in words) [1]: did not show any inhibitory activity over the tested concentration range
inhibition of SARS-CoV-2 PL^pro (in words) (SARS-CoV-2 PL^pro): None of the tested M^pro inhibitors inhibited SARS-CoV-2 PL^pro

CC1(C)[C@@H]2[C@@H](C(=O)N[C@H](C#N)C[C@@H]3CCNC3=O)N(C(=O)COc3ccc(OC(F)(F)F)cc3)C[C@@H]21 [Compound 20]
inhibition of SARS-CoV-2 PL^pro (in words) (SARS-CoV-2 PL^pro): None of the tested M^pro inhibitors inhibited SARS-CoV-2 PL^pro

C#C[C@H](CCSC)NC(=O)[C@@H]1[C@@H]2[C@H](CN1C(=O)[C@@H](NC(=O)C(F)(F)F)C(C)(C)C)C2(C)C [Compound 14]
inhibition of SARS-CoV-2 PL^pro (in words) (SARS-CoV-2 PL^pro): None of the tested M^pro inhibitors inhibited SARS-CoV-2 PL^pro
